Counter-ions that a name gives are not always drawn. Like-named read-outs stand apart in the source and are kept apart here. Each block holds one compound with its values, some of them ahead of it.
Experiments:
D2R = conditions: Figure 1; ref 25 (SB737050), ref 19 (I), ref 26 (PZ-1643), ref 27 (CPPQ); cited from earlier work
human 5-HT6R [1] = biological target: T1, human 5-HT6R (Homo sapiens, UniProt P50406); test: [3H]-LSD radioligand binding assay at 5-HT6R in HEK293 cell membranes; conditions: HEK293 cells with stable expression of human 5-HT6R, mean of at least three experiments (SEM ≤ 18%)
T1 construct: expressed in transfected cells
T1 sequence (P50406 whole entry): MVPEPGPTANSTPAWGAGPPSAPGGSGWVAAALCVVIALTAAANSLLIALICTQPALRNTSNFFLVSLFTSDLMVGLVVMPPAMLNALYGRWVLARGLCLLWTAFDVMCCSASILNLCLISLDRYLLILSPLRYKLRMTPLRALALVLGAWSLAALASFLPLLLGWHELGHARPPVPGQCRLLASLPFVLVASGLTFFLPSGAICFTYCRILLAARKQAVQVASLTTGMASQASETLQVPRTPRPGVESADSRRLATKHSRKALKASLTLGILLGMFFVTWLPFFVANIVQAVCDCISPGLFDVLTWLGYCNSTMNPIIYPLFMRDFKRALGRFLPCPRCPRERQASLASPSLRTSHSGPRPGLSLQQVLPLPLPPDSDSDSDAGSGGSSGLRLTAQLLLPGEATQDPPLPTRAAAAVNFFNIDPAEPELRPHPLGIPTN
Experimental: (§1) The biological evaluation was initiated by assessing the affinity of the compounds for 5-HT6R in the [^3H]-LSD radioligand binding assay. Experiments were performed in a stable HEK293 cell line expressing the human 5-HT6R [10]. […] Experiments were performed in Chinese hamster ovary (CHO) cells with the stable expression of human D3R (Eurofins, Celle-L’Evescault, France).
HEK293 cells with stable expression of human 5-HT6 receptors (prepared with the use of Lipofectamine 2000) were maintained at 37 °C in a humidified atmosphere with 5% CO2 and grown in Dulbecco’s modified Eagle medium containing 10% dialyzed fetal bovine serum and 500 μg/mL G418 sulfate. For membrane preparation, cells were sub-cultured in 150 cm^2 flasks, grown to 90% confluence, washed twice with phosphate buffered saline (PBS), prewarmed to 37 °C, and pelleted by centrifugation (200× g) in PBS containing 0.1 mM EDTA and 1 mM dithiothreitol. Prior to membrane preparation, pellets were stored at −80 °C.
The cell pellets were thawed and homogenized in 10 volumes of assay buffer using an Ultra Turrax tissue homogenizer(IKA, Warsaw, Poland), centrifuged twice at 35,000× g for 15 min at 4 °C, and incubated for 15 min at 37 °C between centrifugation rounds. The composition of the assay buffers was 50 mM Tris HCl, 0.5 mM EDTA, and 4 mM MgCl2. The assays were incubated in a total volume of 200 μL in 96-well microtiter plates for 1 h at 37 °C. The process of equilibration was terminated by rapid filtration through Unifilter plates with a 96-well cell harvester, and radioactivity retained on the filters was quantified on a Microbeta plate reader (PerkinElmer, Waltham, MA, USA). For displacement studies, the assay samples contained as radioligands (PerkinElmer, USA) 2 nM [^3H]-LSD (83.6 Ci/mmol). Nonspecific binding was defined with 10 μM methiothepine. Each compound was tested in triplicate at 7 concentrations (10^−10 to 10^−4 M). The inhibition constants (Ki) were calculated from the Cheng−Prusoff equation [30]. […]

human D3R [2] = biological target: T2, human D3R (Homo sapiens, UniProt P35462); test: D3R screening binding with [3H]-methylspiperone in CHO cells (Eurofins); conditions: percentage displacement at 10^-6 M; CHO cells with stable expression of human D3R; read-out: %inh Binding to D3R @1μM
T2 sequence (P35462 whole entry): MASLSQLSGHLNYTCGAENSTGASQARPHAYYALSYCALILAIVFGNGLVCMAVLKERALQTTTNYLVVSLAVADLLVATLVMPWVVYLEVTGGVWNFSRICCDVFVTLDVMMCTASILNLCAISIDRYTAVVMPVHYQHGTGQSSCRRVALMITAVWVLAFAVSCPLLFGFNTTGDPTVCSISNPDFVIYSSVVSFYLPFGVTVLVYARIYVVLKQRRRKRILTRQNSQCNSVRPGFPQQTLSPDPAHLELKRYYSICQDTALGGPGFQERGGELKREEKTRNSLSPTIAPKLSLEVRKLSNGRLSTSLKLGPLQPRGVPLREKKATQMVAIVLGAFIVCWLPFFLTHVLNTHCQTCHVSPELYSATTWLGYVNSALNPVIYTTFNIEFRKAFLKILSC
Experimental: as §1

human 5-HT6R [3] = biological target: T1, human 5-HT6R; test: 5-HT6R constitutive activity at Gs signaling in NG108-15 cells (CAMYEL BRET cAMP sensor); format: cell-based; conditions: NG108-15 cells transiently expressing 5-HT6R; Figure 3
Experimental: The experiments were performed in 1321N1 cells expressing the human serotonin 5-HT6R. […] Neuroblastoma cells (NG108-15) were grown in DMEM (Dulbecco’s modified Eagle’s medium) supplemented with 10% heat-inactivated fetal bovine serum, 2% HAT (hypoxanthine/aminopterin/thymidine, Life technologies), glutamine, and antibiotics at 37 °C under 5% of CO2. cAMP measurement was performed in cells transiently transfected with a construct expressing the CAMYEL bioluminescence resonance energy transfer (BRET) sensor for cAMP [44] (3 μg DNA/million cells) alone or in combination with a plasmid encoding the human 5-HT6R (0.5 μg DNA/million cells). Transfection of the NG108-15 cells was conducted in suspension using Lipofectamine 2000, according to the manufacturer’s protocol. Plasmids and lipofectamine were diluted in Opti-MEM Reduced Serum Media (Gibco) and incubated at room temperature for 20 min before being added to the cells. […] Coelanterazine H (Molecular Probes) was added in each well at a final concentration of 5 μM and incubated at room temperature for 5 min before measuring BRET in a Mithras LB 940 plate reader (Berthold Technologies, Bad Wildbad, Germany). The decrease in CAMYEL BRET induced by the coexpression of the probe with the 5-HT6R as compared to the BRET measured in cells expressing the probe alone was used as an index of the 5-HT6R constitutive activity.

human serotonin 5-HT6R = biological target: T3, human serotonin 5-HT6R (Homo sapiens, UniProt P50406); test: cAMP cellular assay, inhibition of 5-CT-induced cAMP production in 1321N1 cells; format: cell-based; conditions: 1321N1 cells expressing human 5-HT6R; cAMP production induced by 5-CT (1000 nM); read-out: Kb, antagonist properties at 5-HT6R
T3 construct: host or cells: 1321N1 (frozen recombinant cells)
T3 sequence (P50406 whole entry): as the sequence (P50406 whole entry) above
Experimental: The experiments were performed in 1321N1 cells expressing the human serotonin 5-HT6R.
The functional properties of compounds on 5-HT6R were evaluated using its ability to inhibit cAMP production induced by 5-CT (1000 nM), a 5-HT6R agonist. The compound was tested in triplicate at 8 concentrations (10^−11 to 10^−4 M). The level of adenylyl cyclase activity was measured using frozen recombinant 1321N1 cells expressing the human serotonin 5-HT6R (PerkinElmer). Total cAMP was measured using the LANCE cAMP detection kit (PerkinElmer), according to the manufacturer’s directions. For quantification of cAMP levels, cells (5 μL) were incubated with a mixture of compounds (5 μL) for 30 min at room temperature in 384-well white opaque microtiter plates. After incubation, the reaction was stopped, and cells were lysed by the addition of 10 μL of working solution (5 μL of Eu-cAMP and 5 μL of ULight-anti-cAMP). The assay plate was incubated for 1 h at room temperature. Time-resolved fluorescence resonance energy transfer (TR-FRET) was detected by an Infinite M1000 Pro (Tecan, Männedorf, Switzerland) using instrument settings from LANCE cAMP detection kit manual(PerkinElmer, Waltham, MA, USA).

5-HT6R = conditions: Figure 1; ref 25 (SB737050), ref 19 (I), ref 26 (PZ-1643), ref 27 (CPPQ); cited from earlier work
D3R = biological target: D3R; set-up: method as in earlier work; conditions: Figure 1; ref 25 (SB737050), ref 19 (I), ref 26 (PZ-1643); cited from earlier work
human D3R [4] = biological target: T2, human D3R; set-up: method as in PMID 30896921; conditions: data taken from ref 26, cited from earlier work
human 5-HT6R [5] = biological target: T1, human 5-HT6R; set-up: method as in PMID 30896921; conditions: HEK293 cells, data taken from ref 26; cited from earlier work

Structure (SMILES): O=S(=O)(c1cccc(Cl)c1)n1ccc2c(N[C@H]3CCNC3)nc3ccccc3c21 [CPPQ, (S)-1-((3-chlorophenyl)sulfonyl)-N-(pyrrolidin-3-yl)-1H-pyrrolo[3,2-c]quinolin-4-amine]
pKi D2R (D2R): 6.0

Ki (human 5-HT6R [1]): 11 nM
Structure (SMILES): C[C@H](O)CN1CC[C@H](Nc2nc3ccccc3c3c2ccn3S(=O)(=O)c2cccc(Cl)c2)C1 [Compound 8, (S)-1-((S)-3-((1-((3-chlorophenyl)sulfonyl)-1H-pyrrolo[3,2-c]quinolin-4-yl)amino)pyrrolidin-1-yl)propan-2-ol]

Ki (human 5-HT6R [1]): 6 nM
inhibition at 1 µM (human D3R [2]): 54%
Structure (SMILES): C[C@@H](O)CN1CC[C@H](Nc2nc3ccccc3c3c2ccn3S(=O)(=O)c2cccc(Cl)c2)C1 [Compound 9, (R)-1-((S)-3-((1-((3-chlorophenyl)sulfonyl)-1H-pyrrolo[3,2-c]quinolin-4-yl)amino)pyrrolidin-1-yl)propan-2-ol]

Ki (human 5-HT6R [1]): 84 nM
Structure (SMILES): O=S(=O)(c1cccc(Cl)c1)n1ccc2c(N[C@H]3CCN(CCO)C3)nc3ccccc3c21 [Compound 10, (S)-2-(3-((1-((3-chlorophenyl)sulfonyl)-1H-pyrrolo[3,2-c]quinolin-4-yl)amino)pyrrolidin-1-yl)ethan-1-ol]

Ki (human 5-HT6R [1]): 17 nM
inhibition at 1 µM (human D3R [2]): 25%
Structure (SMILES): COCCCN1CC[C@H](Nc2nc3ccccc3c3c2ccn3S(=O)(=O)c2cccc(Cl)c2)C1 [Compound 11, (S)-1-((3-chlorophenyl)sulfonyl)-N-(1-(3-methoxypropyl)pyrrolidin-3-yl)-1H-pyrrolo[3,2-c]quinolin-4-amine]

Ki (human 5-HT6R [1]): 556 nM
Structure (SMILES): O=S(=O)(c1cccc(Cl)c1)n1ccc2c(N[C@H]3CCN(CCC(F)(F)F)C3)nc3ccccc3c21 [Compound 12, (S)-1-((3-chlorophenyl)sulfonyl)-N-(1-(3,3,3-trifluoropropyl)pyrrolidin-3-yl)-1H-pyrrolo[3,2-c]quinolin-4-amine]

Impact on 5-HT6R-operated Gs signaling (constitutive activity) (human 5-HT6R [3]): neutral antagonist
Ki (human 5-HT6R [1]): 27 nM
Kb (human serotonin 5-HT6R): 1.2 nM
inhibition at 1 µM (human D3R [2]): 58%
Structure (SMILES): CCN1CCC[C@@H]1CNc1nc2ccccc2c2c1ccn2S(=O)(=O)c1cccc(Cl)c1.Cl [Compound 13, (R)-1-((3-chlorophenyl)sulfonyl)-N-((1-ethylpyrrolidin-2-yl)methyl)-1H-pyrrolo[3,2-c]quinolin-4-amine hydrochloride]

Ki (human 5-HT6R [1]): 72 nM
Structure (SMILES): CCN1CCC[C@H]1CNc1nc2ccccc2c2c1ccn2S(=O)(=O)c1cccc(Cl)c1 [Compound 14, (S)-1-((3-chlorophenyl)sulfonyl)-N-((1-ethylpyrrolidin-2-yl)methyl)-1H-pyrrolo[3,2-c]quinolin-4-amine hydrochloride]

Ki (human 5-HT6R [1]): 38 nM
Structure (SMILES): CCN1CC[C@H](CNc2nc3ccccc3c3c2ccn3S(=O)(=O)c2cccc(Cl)c2)C1 [Compound 15, (R)-1-((3-chlorophenyl)sulfonyl)-N-((1-ethylpyrrolidin-3-yl)methyl)-1H-pyrrolo[3,2-c]quinolin-4-amine hydrochloride]

Ki (human 5-HT6R [1]): 64 nM
Structure (SMILES): CCN1CC[C@@H](CNc2nc3ccccc3c3c2ccn3S(=O)(=O)c2cccc(Cl)c2)C1 [Compound 16, (S)-1-((3-chlorophenyl)sulfonyl)-N-((1-ethylpyrrolidin-3-yl)methyl)-1H-pyrrolo[3,2-c]quinolin-4-amine hydrochloride]

Impact on 5-HT6R-operated Gs signaling (constitutive activity) (human 5-HT6R [3]): neutral antagonist
Ki (human 5-HT6R [1]): 27 nM
Kb (human serotonin 5-HT6R): 3.8 nM
inhibition at 1 µM (human D3R [2]): 57%
Structure (SMILES): CC(C)CN1CCC[C@@H]1CNc1nc2ccccc2c2c1ccn2S(=O)(=O)c1cccc(Cl)c1.Cl [Compound 17, (R)-1-((3-chlorophenyl)sulfonyl)-N-((1-isobutylpyrrolidin-2-yl)methyl)-1H-pyrrolo[3,2-c]quinolin-4-amine hydrochloride]

Ki (human 5-HT6R [1]): 65 nM
Structure (SMILES): CC(C)CN1CCC[C@H]1CNc1nc2ccccc2c2c1ccn2S(=O)(=O)c1cccc(Cl)c1 [Compound 18, (S)-1-((3-chlorophenyl)sulfonyl)-N-((1-isobutylpyrrolidin-2-yl)methyl)-1H-pyrrolo[3,2-c]quinolin-4-amine hydrochloride]

Ki (human 5-HT6R [1]): 58 nM
Structure (SMILES): O=S(=O)(c1cccc(Cl)c1)n1ccc2c(NC[C@H]3CCCN3CCO)nc3ccccc3c21 [Compound 19, (R)-2-(2-(((1-((3-chlorophenyl)sulfonyl)-1H-pyrrolo[3,2-c]quinolin-4 yl)amino)methyl)-pyrrolidin-1-yl)ethan-1-ol hydrochloride]

Ki (human 5-HT6R [1]): 77 nM
Structure (SMILES): O=S(=O)(c1cccc(Cl)c1)n1ccc2c(NC[C@@H]3CCCN3CCO)nc3ccccc3c21 [Compound 20, (S)-2-(2-(((1-((3-chlorophenyl)sulfonyl)-1H-pyrrolo[3,2-c]quinolin-4 yl)amino)methyl)pyrrolidin-1-yl)ethan-1-ol hydrochloride]

Ki (human 5-HT6R [1]): 87 nM
Structure (SMILES): COCCCN1CCC[C@@H]1CNc1nc2ccccc2c2c1ccn2S(=O)(=O)c1cccc(Cl)c1 [Compound 21, (R)-1-((3-chlorophenyl)sulfonyl)-N-((1-(3-methoxypropyl)pyrrolidin-2-yl)methyl)-1H-pyrrolo[3,2-c]quinolin-4-amine]

Structure (SMILES): CN1Cc2c(ccc3c2ccn3S(=O)(=O)c2c(Cl)nc3sccn23)CC1CCO (centres unmarked) [I]
pKi 5-HT6R (5-HT6R): 8.7
pKi D3R (D3R): 9.0
pKi D2R (D2R): 7.4

Structure (SMILES): CC(C)CN1CC[C@H](Nc2nc3ccccc3c3c2ccn3S(=O)(=O)c2cccc(Cl)c2)C1 [PZ-1643]
%inh Binding to D3R @1μM (human D3R [4]; percentage displacement at 10^-6 M): 98%
Ki (human D3R [4]; printed in parentheses after %inh, read-out: D3R affinity value in parentheses (Ki)): 7 nM
Ki (human 5-HT6R [5]): 27 nM
pKi 5-HT6R (5-HT6R): 7.6
pKi D3R (D3R): 8.2
pKi D2R (D2R): 6.5

Structure (SMILES): COc1cc2c(cc1NS(=O)(=O)c1ccc(-c3cccs3)cc1)CCN(C)CC2 [SB737050]
pKi 5-HT6R (5-HT6R): 9.0
pKi D3R (D3R): 7.9
pKi D2R (D2R): 7.7
